The test system of data set [1] is Ba/F3 cells expressing p185-BCR-ABL. The data set is described as follows: XTT cell viability / proliferation, Ba/F3 expressing p185-BCR-ABL. Type of data set: cell-based, murine. How it is done: (§1) • 1. Ba/F3 cells were obtained from the German Collection of Microorganisms and Cell Cultures (DSMZ, Braunschweig, Germany) and maintained in RPMI 1640 medium supplemented with 10% fetal calf serum (Invitrogen) containing 10 ng/ml of interleukin-3 (Cell Concepts, Umkirch, Germany). Ecotropic Phoenix cells and Rat-1 cells were cultured in Dulbecco's modified Eagle's medium supplemented with 10% fetal calf serum. GNF-2 (Sigma-Adrich, Steinheim, Germany) was dissolved in dimethyl sulfoxide and added at a final concentration of […]. Cell growth was assessed by dye exclusion using Trypan blue. Proliferation was assessed using the XTT proliferation kit (Roche, Mannheim, Germany), according to the manufacturer's instructions. • 2. Ba/F3: IL-3 dependent lymphatic murine pro B cell line. Ba/F3 cells expressing either p185-BCR-ABL1 (p185-BCR-ABL-Ba/F3) or p210-BCR-ABL (p210-BCR-ABL-Ba/F3). p185-BCR-ABL1 (activated kinases substitute for the IL-3 signaling and therefore render the cells IL3 independent. Ba/F3 cells expressing either p185-BCR-ABL (p185-Ba/F3) or p210-BCR-ABL (p210-Ba/F3). Ba/F3 cells obtained from the German Collection of Microorganisms and Cell Cultures (DSMZ, Braunschweig, Germany). • 3. Mutant transduced Ba/F3 cells (T315I-p185-BCR-ABL1 or T315I-p210-BCR-ABL1): Ba/F3 cells expressing either the mutated forms T315I-p185-BCR-ABL1 or T315I-p210-BCR-ABL1. • 4. WT-Sup-B15: A Ph+ ALL cell line harboring the p185-BCR-ABL. Sup-B15: established from the bone marrow of a child with acute lymphoblastic leukemia (B cell precursor ALL) in second relapse in 1984; described in the literature to carry the ALL-variant (m-BCR) of the BCR-ABL1 fusion gene (e1-a2) correct, because it results in the p185-BCR-ABL version. • 5. […] V617FJAK2 HEL: (Human erythroleukemia) is a growth factor independent erythroleukemic cell line established from the bone marrow of a patient with relapsed Hodgkin disease after autologous bone marrow transplantation (Martin P & Papayannopoulou T: Science 1982; 216:1233-1235). HEL cells display a block in differentiation at the level of common erythroid-megakaryocytic progenitor and have been commonly used as a model to study erythroid and megakaryocytic differentiation. • 7. Jurkat: an immortalized human T lymphocyte first derived from the peripheral blood of a child suffering from T cell leukemia. Jurkat cells are used to study acute T cell leukemia, T cell signaling, and the expression of various chemokine receptors susceptible to viral entry, particularly HIV.
(§2) FIGS. 1A and 1B: Effects of Compound 16 on Ba/F3 cells expressing either p185-BCR-ABL or T315I-p185-BCR-ABL. Cells were exposed to increasing concentration of Compound 16 [empty vehicle (0.0 μM+IL3), 2.5, 5.0 and 10.0 μM]. […] Cell viability (CV) was assessed using the XTT method as described in the experimental part. The means±SD of triplicates from one representative experiment out of three performed are given.
(§3) FIGS. 7A-C: Effects of Compound 16 on of Ba/F3 cells expressing WT-p185-BCR-ABL (FIG. 7A) and the mutant gatekeeper T315I-p185-BCR-ABL (FIG. 7B) by Compound 16. Cells were exposed to increasing concentrations of Compound 16.

The test system of data set [2] is WT-Ba/F3. The experiment in a line: Proliferation by trypan blue exclusion, WT-Ba/F3. It is filed as cell-based, murine. The note with it: WT-Ba/F3, 1.0, 2.0 and 5.0 μM. How it is done:
• 1. Ba/F3 cells were obtained from the German Collection of Microorganisms and Cell Cultures (DSMZ, Braunschweig, Germany) and maintained in RPMI 1640 medium supplemented with 10% fetal calf serum (Invitrogen) containing 10 ng/ml of interleukin-3 (Cell Concepts, Umkirch, Germany). Ecotropic Phoenix cells and Rat-1 cells were cultured in Dulbecco's modified Eagle's medium supplemented with 10% fetal calf serum. GNF-2 (Sigma-Adrich, Steinheim, Germany) was dissolved in dimethyl sulfoxide and added at a final concentration of […]. Cell growth was assessed by dye exclusion using Trypan blue. Proliferation was assessed using the XTT proliferation kit (Roche, Mannheim, Germany), according to the manufacturer's instructions. • 2. Ba/F3: IL-3 dependent lymphatic murine pro B cell line. […]
FIGS. 4A and 4B. […] All cell lines were treated with the indicated concentrations of Compound 16 for total period of five days and proliferation was determined by trypan blue exclusion of viable cells. […] For factor-independent growth, the number of viable cells was determined at day 3 by trypan blue dye exclusion.

In data set [3] the test system is BV173. The experiment in a line: Proliferation by dye exclusion after three days, BV173. Type of data set: cell-based, human. How it is done: (§4) FIG. 3. […] Cells were exposed to increasing concentration of 2.5, 5 and 10 μM of Compound 16. The negative control cell lines Ph− ALL HP was irresponsive to increasing concentration of Compound 16 (up to 10 μM). […] All four cell lines were plated in duplicates at the indicated concentrations, and proliferation was assessed after three days by dye exclusion of viable cells. […] The sensitivity of Ph+ cells to Compound 16 underlines the involvement of BCR-ABL in the antiproliferative mechanism. Death induction of BV173 cells is well taken as an indication of the ability of such group of compounds to overcome resistance that is originated in non-mutational grounds. However, the ability overcome the resistant T315I-BCR-ABL mutant, as shown in the dose-dependent manner of KÖ (circles), might be indicative for a non-ATP competitive mechanism of action.

Data set [4] relates to Ba/F3 cells expressing T315I-p185-BCR-ABL. The data set is described as follows: XTT cell viability / proliferation, Ba/F3 expressing T315I-p185-BCR-ABL. It is filed as cell-based, murine. The procedure: as §1, §2, §3
In data set [5] the test system is HP (Ph− ALL cultures). The experiment in a line: Proliferation by dye exclusion after three days, HP. It is filed as cell-based, human. The note with it: HP, 2.5, 5 and 10 μM. The procedure: as §4
In data set [6] the test system is PINCO transfected Ba/F3 cells. The experiment in a line: XTT cell viability, Ba/F3 transduced with empty vector (PINCO). It is filed as cell-based, murine. To be noted: increasing concentration up to 10 μM. The procedure:
• 1. Ba/F3 cells were obtained from the German Collection of Microorganisms and Cell Cultures (DSMZ, Braunschweig, Germany) and maintained in RPMI 1640 medium supplemented with 10% fetal calf serum (Invitrogen) containing 10 ng/ml of interleukin-3 (Cell Concepts, Umkirch, Germany). Ecotropic Phoenix cells and Rat-1 cells were cultured in Dulbecco's modified Eagle's medium supplemented with 10% fetal calf serum. GNF-2 (Sigma-Adrich, Steinheim, Germany) was dissolved in dimethyl sulfoxide and added at a final concentration of […]. Cell growth was assessed by dye exclusion using Trypan blue. Proliferation was assessed using the XTT proliferation kit (Roche, Mannheim, Germany), according to the manufacturer's instructions. • 2. Ba/F3: IL-3 dependent lymphatic murine pro B cell line. Ba/F3 cells expressing either p185-BCR-ABL1 (p185-BCR-ABL-Ba/F3) or p210-BCR-ABL (p210-BCR-ABL-Ba/F3). p185-BCR-ABL1 (activated kinases substitute for the IL-3 signaling and therefore render the cells IL3 independent. Ba/F3 cells expressing either p185-BCR-ABL (p185-Ba/F3) or p210-BCR-ABL (p210-Ba/F3). Ba/F3 cells obtained from the German Collection of Microorganisms and Cell Cultures (DSMZ, Braunschweig, Germany). • 3. Mutant transduced Ba/F3 cells (T315I-p185-BCR-ABL1 or T315I-p210-BCR-ABL1): Ba/F3 cells expressing either the mutated forms T315I-p185-BCR-ABL1 or T315I-p210-BCR-ABL1. • 4. WT-Sup-B15: A Ph+ ALL cell line harboring the p185-BCR-ABL. Sup-B15: established from the bone marrow of a child with acute lymphoblastic leukemia (B cell precursor ALL) in second relapse in 1984; described in the literature to carry the ALL-variant (m-BCR) of the BCR-ABL1 fusion gene (e1-a2) correct, because it results in the p185-BCR-ABL version. • 5. […]
FIG. 11: Antiproliferative effect of Compound 16 on PINCO transfected Ba/F3 cells. […] Proliferation status was determined by the metabolic activity of cells given by the reduction rate of XTT to formazan. […]

The mark [7] stands for this setting: 1 μM, within the first 24 hours.

In the case of `COc1ccc(C(=O)N2CCN(c3cc(Nc4ccc(OC(F)(F)F)cc4)ncn3)CC2)cc1OC` [Compound 16], the cells inhibited in data set [1] (setting [7]) is 35%; in data set [4] (setting [7]), “not affected”. The viable cells in data set [1] (2 μM, T=48 hr) was 27.59%; in data set [4] (2 μM, T=48 hr) it was 50.71%. Further, the cell proliferation affected in data set [1] (5 μM) is around 90%; in data set [4] (5 and 10 μM), around 80%. In data set [1] (5 μM, WT-p185- and T315I-p185-BCR-ABL Ba/F3), the time of maximum inhibition post application was 60 h. In addition, the “effect on proliferation (in words)” value in data set [2] was “without affecting the proliferation”. This compound displayed a 50% inhibitory concentration (IC50) in data set [3] of 2500 nM. For the same compound, the “RF (T315I-p185 versus p185-Ba/F3)” value in data set [4] (1 μM, 48 hr) is 1.07. The “resistance conferred by T315I mutant versus p185-Ba/F3” value in data set [4] (2 μM, T=48 hr) amounted to 1.84 fold. The “time to complete inhibition” value in data set [4] (10 μM) is around 96 h. The “response (in words)” value in data set [5] is “irresponsive”. Further, the “antiproliferative response (in words)” value in data set [6] is listed as “No effect”.

Source of the values: patent publication US20250228851A1, “ALLOSTERIC INHIBITOR COMPOUNDS FOR OVERCOMING CANCER RESISTANCE” (priority 2021, published 2025).
